Test results published in ChEMBL document CHEMBL1129108, “On the bioactive conformation of the gaba uptake inhibitor SK&F 89976-A” (Bioorg Med Chem Lett, 1996).

What was measured:
Type in all cases: functional
[1] = biological target: T1, Sodium- and chloride-dependent GABA transporter 3 (Homo sapiens, UniProt P48066); assay: Compound was tested for its ability to inhibit uptake of [3H]- GABA by cloned human GAT-3 transporter
T1 sequence (P48066 whole entry): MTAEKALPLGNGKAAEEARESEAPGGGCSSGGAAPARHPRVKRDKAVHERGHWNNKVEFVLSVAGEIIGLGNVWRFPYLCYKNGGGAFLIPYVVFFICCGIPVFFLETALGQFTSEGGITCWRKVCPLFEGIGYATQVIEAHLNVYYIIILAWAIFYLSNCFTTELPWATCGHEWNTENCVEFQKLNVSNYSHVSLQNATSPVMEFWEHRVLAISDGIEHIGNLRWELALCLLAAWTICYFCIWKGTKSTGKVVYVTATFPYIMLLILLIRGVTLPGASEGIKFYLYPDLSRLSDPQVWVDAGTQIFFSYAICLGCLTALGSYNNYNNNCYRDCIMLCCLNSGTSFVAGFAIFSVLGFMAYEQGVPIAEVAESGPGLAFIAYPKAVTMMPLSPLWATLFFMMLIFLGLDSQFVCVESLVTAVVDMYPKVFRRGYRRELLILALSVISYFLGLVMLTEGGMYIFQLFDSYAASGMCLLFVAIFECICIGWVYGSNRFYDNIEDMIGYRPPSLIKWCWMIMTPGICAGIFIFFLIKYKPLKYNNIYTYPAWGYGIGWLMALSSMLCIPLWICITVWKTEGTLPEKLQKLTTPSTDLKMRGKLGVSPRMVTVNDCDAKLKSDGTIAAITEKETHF

[2] = biological target: T2, Sodium- and chloride-dependent GABA transporter 2 (Rattus norvegicus, UniProt P31646); assay: Compound was tested for its ability to inhibit uptake of [3H]- GABA by cloned rat GAT-2 transporte
T2 sequence (P31646 whole entry): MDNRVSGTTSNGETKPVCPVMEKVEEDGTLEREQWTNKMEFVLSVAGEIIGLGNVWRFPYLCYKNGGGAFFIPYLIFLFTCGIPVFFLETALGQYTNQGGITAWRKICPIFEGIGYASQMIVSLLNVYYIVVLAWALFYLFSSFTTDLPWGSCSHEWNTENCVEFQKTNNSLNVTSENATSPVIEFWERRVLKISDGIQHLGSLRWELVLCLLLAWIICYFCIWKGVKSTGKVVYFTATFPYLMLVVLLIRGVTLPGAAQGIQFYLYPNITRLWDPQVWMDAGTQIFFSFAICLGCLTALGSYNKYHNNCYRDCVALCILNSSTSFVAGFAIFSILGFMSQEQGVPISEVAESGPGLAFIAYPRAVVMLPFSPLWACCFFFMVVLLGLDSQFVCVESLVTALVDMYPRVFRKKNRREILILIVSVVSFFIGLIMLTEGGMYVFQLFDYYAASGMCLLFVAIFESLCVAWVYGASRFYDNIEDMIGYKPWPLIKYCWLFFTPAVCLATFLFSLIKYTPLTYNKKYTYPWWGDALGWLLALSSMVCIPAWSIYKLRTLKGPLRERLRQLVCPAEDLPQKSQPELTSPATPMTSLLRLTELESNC

[3] = biological target: Sodium- and chloride-dependent GABA transporter 1 (Homo sapiens, UniProt P30531); assay: Compound was tested for its ability to inhibit uptake of [3H]- GABA by cloned human GAT-1 transporter
[4] = biological target: T3, Sodium- and chloride-dependent betaine transporter (Homo sapiens, UniProt P48065); assay: Compound was tested for its ability to inhibit uptake of [3H]- GABA by cloned human BGT-1 transporter
T3 sequence (P48065 whole entry): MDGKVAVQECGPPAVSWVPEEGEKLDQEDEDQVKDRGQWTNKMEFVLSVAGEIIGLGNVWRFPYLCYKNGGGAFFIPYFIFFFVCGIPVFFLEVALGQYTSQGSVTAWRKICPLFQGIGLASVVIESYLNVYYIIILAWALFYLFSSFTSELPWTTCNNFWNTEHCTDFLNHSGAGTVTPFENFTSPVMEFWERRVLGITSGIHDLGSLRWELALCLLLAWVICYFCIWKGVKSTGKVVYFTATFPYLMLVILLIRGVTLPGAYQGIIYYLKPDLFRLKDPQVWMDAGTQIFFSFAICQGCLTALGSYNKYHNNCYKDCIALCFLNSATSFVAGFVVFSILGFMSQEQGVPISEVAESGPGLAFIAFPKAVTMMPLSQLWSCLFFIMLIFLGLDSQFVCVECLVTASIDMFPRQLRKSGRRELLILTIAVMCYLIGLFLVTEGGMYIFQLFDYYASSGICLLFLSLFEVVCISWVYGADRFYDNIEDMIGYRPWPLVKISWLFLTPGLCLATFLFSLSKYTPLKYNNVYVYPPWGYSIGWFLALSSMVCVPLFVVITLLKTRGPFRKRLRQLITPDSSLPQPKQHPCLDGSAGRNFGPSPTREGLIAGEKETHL

Chain of Sodium- and chloride-dependent GABA transporter 1 (P30531 whole entry): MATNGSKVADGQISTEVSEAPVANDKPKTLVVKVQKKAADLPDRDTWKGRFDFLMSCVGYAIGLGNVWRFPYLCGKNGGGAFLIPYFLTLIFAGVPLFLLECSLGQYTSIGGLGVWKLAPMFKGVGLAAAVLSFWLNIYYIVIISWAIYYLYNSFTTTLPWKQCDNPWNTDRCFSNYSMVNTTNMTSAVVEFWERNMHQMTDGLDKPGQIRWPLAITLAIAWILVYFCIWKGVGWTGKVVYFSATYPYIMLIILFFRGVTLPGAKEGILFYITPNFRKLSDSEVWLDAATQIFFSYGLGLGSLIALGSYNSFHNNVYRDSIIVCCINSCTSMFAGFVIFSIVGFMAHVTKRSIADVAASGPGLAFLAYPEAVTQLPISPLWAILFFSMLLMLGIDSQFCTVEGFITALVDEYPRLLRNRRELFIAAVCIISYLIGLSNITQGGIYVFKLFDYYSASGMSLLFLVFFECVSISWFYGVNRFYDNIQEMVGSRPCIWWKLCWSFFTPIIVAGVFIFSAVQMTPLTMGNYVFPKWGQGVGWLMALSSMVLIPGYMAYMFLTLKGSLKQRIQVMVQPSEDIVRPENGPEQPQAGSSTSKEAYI

IC50 [1] [µM] | IC50 [2] [µM] | IC50 [3] [µM] | IC50 [4] [µM] | Compound
876 | 757 | 809 | 335 | O=C(O)[C@H]1CCC2CC(=C(c3ccccc3)c3ccccc3)CCN2C1 (stereo partly specified)
2040 | 477 | 632 | 2900 | O=C(O)[C@@H]1CCC2C[C@H](C(c3ccccc3)c3ccccc3)CCN2C1 (stereo partly specified)
782 | 669 | 270 | 809 | O=C(O)[C@H]1CCC2C[C@H](C(c3ccccc3)c3ccccc3)CCN2C1 (stereo partly specified)
3230 | 810 | 270 | 436 | O=C(O)[C@@H]1CCC2CC(=C(c3ccccc3)c3ccccc3)CCN2C1 (stereo partly specified)
